In patent publication US20260262643A1, “HERBICIDAL BENZOXAZINES” (FMC CORPORATION, priority 2022, published 2026):

Tests used:
barnyardgrass [1] = assay: Test C preemergence; format: in vivo, Echinochloa crusgalli; conditions: 0 to 100 scale (0 no effect, 100 complete control)
How it was run: (§1)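 Pre: seeds in loam/sand, directed soil spray. Post: 1–2 leaf plants, 2–10 cm. Cmpd in non-phytotoxic solvent + surfactant. Greenhouse 10 d; visual rating vs untreated, 0 = none, 100 = complete control.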

blackgrass [2] = assay: Test C preemergence; format: in vivo, Alopecurus myosuroides; conditions: 0 to 100 scale (0 no effect, 100 complete control)
How it was run: as §1

corn [3] = assay: Test C preemergence; format: in vivo, Zea mays; conditions: 0 to 100 scale (0 no effect, 100 complete control)
How it was run: as §1

green foxtail [4] = assay: Test C preemergence; format: in vivo, Setaria viridis; conditions: 0 to 100 scale (0 no effect, 100 complete control)
How it was run: as §1

kochia [5] = assay: Test C preemergence; format: in vivo, Bassia scoparia; conditions: 0 to 100 scale (0 no effect, 100 complete control)
How it was run: as §1

oat, wild [6] = assay: Test C preemergence; format: in vivo, Avena fatua; conditions: 0 to 100 scale (0 no effect, 100 complete control)
How it was run: as §1

pigweed, palmer [7] = assay: Test C preemergence; format: in vivo, Amaranthus palmeri; conditions: 0 to 100 scale (0 no effect, 100 complete control)
How it was run: as §1

ragweed [8] = assay: Test C preemergence; format: in vivo, Ambrosia artemisiifolia; conditions: 0 to 100 scale (0 no effect, 100 complete control)
How it was run: as §1

ryegrass, Italian [9] = assay: Test C preemergence; format: in vivo, Lolium multiflorum; conditions: 0 to 100 scale (0 no effect, 100 complete control)
How it was run: as §1

soybean [10] = assay: Test C preemergence; format: in vivo, Glycine max; conditions: 0 to 100 scale (0 no effect, 100 complete control)
How it was run: as §1

wheat [11] = assay: Test C preemergence; format: in vivo, Triticum aestivum; conditions: 0 to 100 scale (0 no effect, 100 complete control)
How it was run: as §1

barnyardgrass [12] = assay: Test C postemergence; format: in vivo, Echinochloa crusgalli; conditions: 10 days
How it was run: as §1

blackgrass [13] = assay: Test C postemergence; format: in vivo, Alopecurus myosuroides; conditions: Alopecurus myosuroides, post-emergence, 240 h, 10 days, read-out: Plant response rating, Blackgrass
How it was run: as §1

corn [14] = assay: Test C postemergence; format: in vivo, Zea mays; conditions: Zea mays, post-emergence, 240 h, 10 days
How it was run: as §1

green foxtail [15] = assay: Test C postemergence; format: in vivo, Setaria viridis; conditions: 10 days
How it was run: as §1

kochia [16] = assay: Test C postemergence; format: in vivo, Bassia scoparia; conditions: 10 days
How it was run: as §1

oat, wild [17] = assay: Test C postemergence; format: in vivo, Avena fatua; conditions: 10 days
How it was run: as §1

pigweed, palmer [18] = assay: Test C postemergence; format: in vivo, Amaranthus palmeri; conditions: 10 days
How it was run: as §1

ragweed [19] = assay: Test C postemergence; format: in vivo, Ambrosia artemisiifolia; conditions: 10 days
How it was run: as §1

ryegrass, Italian [20] = assay: Test C postemergence; format: in vivo, Lolium multiflorum; conditions: 10 days
How it was run: as §1

soybean [21] = assay: Test C postemergence; format: in vivo, Glycine max; conditions: 10 days
How it was run: as §1

wheat [22] = assay: Test C postemergence; format: in vivo, Triticum aestivum; conditions: 10 days
How it was run: as §1

galium = assay: Test C postemergence; format: in vivo, Galium aparine; conditions: 10 days
How it was run: as §1

horseweed = assay: Test C postemergence; format: in vivo, Erigeron canadensis; conditions: 10 days
How it was run: as §1

barnyardgrass [23] = assay: Test D flooded paddy test; format: in vivo, Echinochloa crus-galli; conditions: 250 g ai/ha, applied to paddy water, visual rating after 13 to 14 days, scale 0 to 100 (0 no effect, 100 complete control)
How it was run: (§2)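 At the 2-leaf stage, floodwater 3 cm deep received the test compound; that depth persisted throughout. Plants scored visually 13 to 14 days on, 0 (no effect) to 100 (complete control), dash indicating no result.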

ducksalad = assay: Test D flooded paddy test; format: in vivo, Heteranthera limosa; conditions: 250 g ai/ha, applied to paddy water, visual rating after 13 to 14 days, scale 0 to 100 (0 no effect, 100 complete control)
How it was run: as §2

rice = assay: Test D flooded paddy test; format: in vivo, Oryza sativa; conditions: 250 g ai/ha, applied to paddy water, visual rating after 13 to 14 days, scale 0 to 100 (0 no effect, 100 complete control)
How it was run: as §2

sedge, umbrella = assay: Test D flooded paddy test; format: in vivo, Cyperus difformis; conditions: 250 g ai/ha, applied to paddy water, visual rating after 13 to 14 days, scale 0 to 100 (0 no effect, 100 complete control)
How it was run: as §2

[24] = Preemergence, 500 g ai/ha, visual rating after 10 days
[25] = Test C, preemergence, 125 g ai/ha
[26] = 125 g ai/ha, postemergence, 0 to 100 scale, 0 no effect, 100 complete control
[27] = Postemergence, 500 g ai/ha, visual 0 to 100 scale (0 no effect, 100 complete control)
[28] = 125 g ai/ha, postemergence, 0 to 100 scale (0 no effect, 100 complete control)

## CC(C)c1ncn(-c2cc3c(c(C(=O)N4C[C@H](C)Oc5c(Cl)cccc54)c2)OCO3)n1 [Compound 258, [(2S)-8-chloro-2-methyl-2,3-dihydro-1,4-benzoxazin-4-yl]-[6-(3-isopropyl-1,2,4-triazol-1-yl)-1,3-benzodioxol-4-yl]methanone]
Barnyardgrass [1]; [24]
  Plant response rating, Barnyardgrass: 100
Barnyardgrass [1]; [25]
  Barnyardgrass plant response rating: 80
Blackgrass [2]; [24]
  Plant response rating, Blackgrass: 60
Blackgrass [2]; [25]
  Blackgrass plant response rating: 40
Corn [3]; [24]
  Plant response rating, Corn: 20
Corn [3]; [25]
  Corn plant response rating: 10
Green foxtail [4]; [24]
  Plant response rating, Foxtail, Green: 100
Green foxtail [4]; [25]
  Foxtail, Green plant response rating: 100
Kochia [5]; [24]
  Plant response rating, Kochia: 100
Kochia [5]; [25]
  Kochia plant response rating: 90
oat, wild [6]; [24]
  Plant response rating, Oat, Wild: 90
oat, wild [6]; [25]
  Oat, Wild plant response rating: 40
pigweed, palmer [7]; [24]
  Plant response rating, Pigweed, Palmer: 100
pigweed, palmer [7]; [25]
  Pigweed, Palmer plant response rating: 100
Ragweed [8]; [24]
  Plant response rating, Ragweed: 50
Ragweed [8]; [25]
  Ragweed plant response rating: 40
ryegrass, Italian [9]; [24]
  Plant response rating, Ryegrass, Italian: 100
ryegrass, Italian [9]; [25]
  Ryegrass, Italian plant response rating: 90
Soybean [10]; [24]
  Plant response rating, Soybean: 100
Soybean [10]; [25]
  Soybean plant response rating: 50
Wheat [11]; [24]
  Plant response rating, Wheat: 60
Wheat [11]; [25]
  Wheat plant response rating: 50
Barnyardgrass [12]; [26]
  Plant response rating, Barnyardgrass: 40
Barnyardgrass [12]; [27]
  Plant response rating, Barnyardgrass: 90
Blackgrass [13]; [28]
  pest or weed control at 125 g/ha: 50%
Blackgrass [13]; [27]
  pest or weed control at 500 g/ha: 100%
Corn [14]; [28]
  Corn plant response rating (crop injury, 0 = no effect, 100 = complete kill) at 125 g/ha: 70%
Corn [14]; [27]
  Corn plant response rating (crop injury, 0 = no effect, 100 = complete kill) at 500 g/ha: 80%
Green foxtail [15]; [26]
  Plant response rating, Foxtail, Green: 50
Green foxtail [15]; [27]
  Plant response rating, Foxtail, Green: 90
Kochia [16]; [26]
  Plant response rating, Kochia: 70
Kochia [16]; [27]
  Plant response rating, Kochia: 100
oat, wild [17]; [26]
  Plant response rating, Oat, Wild: 30
oat, wild [17]; [27]
  Plant response rating, Oat, Wild: 90
pigweed, palmer [18]; [26]
  Plant response rating, Pigweed, Palmer: 100
pigweed, palmer [18]; [27]
  Plant response rating, Pigweed, Palmer: 100
Ragweed [19]; [26]
  Plant response rating, Ragweed: 70
Ragweed [19]; [27]
  Plant response rating, Ragweed: 90
ryegrass, Italian [20]; [26]
  Plant response rating, Ryegrass, Italian: 50
ryegrass, Italian [20]; [27]
  Plant response rating, Ryegrass, Italian: 80
Soybean [21]; [26]
  Plant response rating, Soybean: 100
Soybean [21]; [27]
  Plant response rating, Soybean: 100
Wheat [22]; [26]
  Plant response rating, Wheat: 20
Wheat [22]; [27]
  Plant response rating, Wheat: 50
galium; [26]
  Plant response rating, Galium: 100
galium; [27]
  Plant response rating, Galium: 100
horseweed; [26]
  Plant response rating, Horseweed: 70
horseweed; [27]
  Plant response rating, Horseweed: 90
Barnyardgrass [23]
  Plant response rating, Barnyardgrass (Flood): 35
ducksalad
  Plant response rating, Ducksalad (Flood): 98
rice
  Plant response rating, Rice (Flood): 10
sedge, umbrella
  Plant response rating, Sedge, Umbrella (Flood): 98
